Results taken from article PMC9828538, “Antigiardial Activity of Novel Guanidine Compounds” (Chemmedchem, 2022).
Values after ≈ are worked out from the molar mass of the structure shown. Structures can show the parent of a compound that is named as a salt. Where two headings read alike, the source gives them in different places.

What was measured:
[1] = tested on: Giardia duodenalis trophozoites (BAH2c2 strain); test: Resazurin reduction assay on Giardia trophozoites in vitro; format: cell-based; conditions: for MIC: minimum inhibitory concentration, read-out: Antigiardial activity MIC (24 h); for Antigiardial activity MLC (24 h): minimum lethal concentration; for Antigiardial activity at 5 h: 25 μM; for Selectivity ratio: higher ratios = more selective
Excerpt: (§1) Biology Materials and Methods:
Metronidazole was sourced from sigma.
Chemicals used for the culture of Giardia in vitro were sourced as follows: glucose and L-cysteine (ACROS organics, Thermo Fisher Scientific, Scoresby, Vic), Ammonium Iron (III) citrate, ascorbic Acid (Sigma -aldrich, Castle Hill, NSW), potassium dihydrogen orthophosphate (UNIVAR, Ingleburn, NSW), bovine bi le (Fluka analytical (BD)), di-potassium hydrogen orthophosphate (Fronine laboratory supplies, Riverstone, NSW).
G. duodenalis (BAH2c2 strain) was cultivated according to the method of Clark and Diamond in Keister’s modified TYI-S-33 medium, supplemented with heat inactivated foetal bovine serum (Hyclone™, Thermo Scientific, Scoresby, Vic) at 37°C in plastic 9 mL screw-capped test tubes (nunc). Subcultures were performed once a confluent monolayer was observed, approximately 2 – 3 times per week (Clark and Diamond, 2002).
(§2) CaCo-2 cells, a human cell line derived from a primary colonic tumour, were sourced from Cellbank Australia and were maintained in MEM supplemented with 2 mM glutamine, 1% non-essential amino acids and 10% FCS (Thermo Scientific). Cells were passaged when confluent, approximately 1-2 times per week. Vero cells were also obtained from Cellbank Australia and maintained as above.
(§3) In vitro drug efficacy assays
Resazurin Reduction Assay […]
tested to identify the IC50 and minimum lethal concentration (MLC). For all assays the media of confluent cultures was replaced with fresh media and the cultures were placed on ice for 40 minutes to detach trophozoites.
Trophozoites were enumerated using a haemocytometer and 50 000 trophozoites were added to each test well of a 96 well plate. Either single concentrations (final concentration 25 μM) for the screening assay or tripling dilutions […]
wells. The assays were repeated in triplicate with metronidazole and a DMSO (vehicle only) used as controls. Plates were incubated under anaerobic conditions (anaerogen sachet, Thermofisher scientific) for 5 or 24 hours at 37°C following which the viability of treated cells was determined using the resazurin reduction assay (Benere et al., 2007). The media was removed and replaced with an equal volume of warm PBS. Resazurin (Sigma) was then added at 10% of the total volume of the wells. Plates were further incubated for colour development and absorbance read at 570 nm and 630 nm. Resazurin reduction was calculated according to the following formula: […]
(§4) CaCo-2 or Vero cells, maintained as outlined above, were collected via trypsinisation and enumerated using trypan blue and a haemocytometer. Select analogues were prepared in DMSO so that the final concentration in the assay was 25 μM. 1 X 10^5 cells/ml were added to each assay with the appropriate drug dilution. Assays were completed in 96 well plates and incubated for 24 hours at 37°C, 5% CO2 in a humidified incubator. After incubation cells were […]
(§5) washed with warm PBS before the addition of 10% resazurin in PBS. Assays were incubated to allow colour development and absorbance read at 630 and 570nm. Activity of the analogues against mammalian cells was calculated according to the formula stated above.

Giardia = tested on: Giardia; set-up: method as in PMID 14585063; conditions: drug treatment of Giardia infection; cited from earlier work
Escherichia coli = test: Antibacterial activity against gram negative bacteria (E. coli); format: cell-based
Protocol: as §1
Metronidazole was sourced from sigma. […]
hydrogen orthophosphate (Fronine laboratory supplies, Riverstone, NSW).
Subcultures were performed once a confluent
Scientific). […] Vero cells were also obtained from Cellbank Australia and maintained as above.
as §3
Resazurin Reduction Assay
For all assays the media of confluent cultures
2007). […] Resazurin (Sigma) was then
Plates were further incubated for colour development and absorbance read at 570 nm and 630 nm. Resazurin reduction was calculated according to the following formula: […]
broth for a random selection of compounds (Thermofisher Scientific). Compounds were diluted in DMSO to 100X […]
Cells were incubated for 18-24 hrs before interpretation of results. […]
blue and a haemocytometer. […]
was 25 μM. […] Assays were completed
After incubation cells were […]

Vero cells = test: In vitro cytotoxicity, Vero cells; conditions: 25 μM; for Toxicity (Y/N) / Toxicity (% growth control): 24 h; for Toxicity (% growth control): Percent Vero cell growth
Protocol: (§6) Biology Materials and Methods: […]
as §2
(§7) In vitro drug efficacy assays […]
(§8) The media was removed and replaced with an equal volume of warm PBS. Resazurin (Sigma) was then added at 10% of the total volume of the wells. Plates were further incubated for colour development and absorbance read at 570 nm and 630 nm. Resazurin reduction was calculated according to the following formula: […]
CaCo-2 or Vero cells, maintained as outlined above, were collected via trypsinisation and enumerated using trypan blue and a haemocytometer. Select analogues were prepared in DMSO so that the final concentration in the assay […]
in 96 well plates and incubated for 24 hours at 37°C, 5% CO2 in a humidified incubator. After incubation cells were […]
washed with warm PBS before the addition of 10% resazurin in PBS. Assays were incubated to allow colour development and absorbance read at 630 and 570nm. Activity of the analogues against mammalian cells was calculated according to the formula stated above. […]
reduction assay the mean and standard error of the mean was determined with each assay completed in triplicate.
The IC50 was calculated using the log (inhibitor) vs. normalised response – variable slope function in Graphpad […]

CaCo-2 cells = conditions: human, 24 h, 25 μM
Protocol: as §6, §2, §7
as §8, with “2007). The” for “The”
as §4, §5

[2] = Giardia duodenalis, 24 h, read-out: Antigiardial activity IC50 (24 h)
[3] = 24 h, read-out: Antigiardial activity IC50 (24 h)
[4] = Giardia duodenalis, 5 h, read-out: Antigiardial activity IC50 (5 h)
[5] = Vero cells, Table 4 (toxic if >10 % cells affected)
[6] = toxicity tested at 25 μM vs 5 h IC50, Table 4
[7] = toxicity tested at 25 μM vs 24 h IC50, Tables 1-3
[8] = Vero cells, Tables 1-3 (toxic if >20 % cells affected)

Compound	IC50 [1, 2] [nM]	MIC ([1]; Giardia duodenalis, 24 h) [µM]	also measured
N=C(NN=Cc1ccc(O)cc1)NN=Cc1ccc(O)cc1 [Compound 27]	> 25000		
CC(C)c1ccc(C=NNC(=N)NN=Cc2ccc(C(C)C)cc2)cc1 [Compound 21]	1900	6.25 (≈ 2.18 µg/mL)	
N=C(NN=Cc1ccccc1O)NN=Cc1ccccc1O [Compound 29]	> 25000		
CN(C)c1ccc(C=NN=C(N)NN=Cc2ccc(N(C)C)cc2)cc1 [Compound 33]			Antigiardial activity MLC (24 h) ([1]; 24 h): 25 µM; IC50 [1, 3]: 1100 nM
N=C(NN=Cc1cccc(O)c1)NN=Cc1cccc(O)c1 [Compound 28]	> 25000		
C#Cc1cccc(C=NNC(=N)NN=Cc2cccc(C#C)c2)c1 [Compound 23]	1200	25 (≈ 7.83 µg/mL)	
N=C(NN=Cc1cccc(Br)c1)NN=Cc1cccc(Br)c1 [Compound 9]	2900	25 (≈ 10.6 µg/mL)	
CCCSc1ccc2nc(NC(=O)OC)[nH]c2c1 [albendazole]			treatment success / reported efficacy (Giardia): 62–95%
N=C(NN=Cc1cccc(Cl)c1)NN=Cc1cccc(Cl)c1 [Compound 8]	3500	6.25 (≈ 2.09 µg/mL)	
N=C(NN=Cc1ccc(F)cc1)NN=Cc1ccc(F)cc1 [Compound 7]	6520	12.5 (≈ 3.77 µg/mL)	
N=C(NN=Cc1ccc(-c2ccccc2)cc1)NN=Cc1ccc(-c2ccccc2)cc1 [Compound 17]	400	2.8 (≈ 1.17 µg/mL)	
N=C(NN=Cc1cccc(F)c1)NN=Cc1cccc(F)c1 [Compound 10]	> 25000	> 25	
Cc1ccc(C=NNC(=N)NN=Cc2ccc(C)cc2)cc1 [Compound 14]		25 (≈ 7.33 µg/mL)	
CCCc1ccc(C=NNC(=N)NN=Cc2ccc(CCC)cc2)cc1 [Compound 19]	800	8.3 (≈ 2.9 µg/mL)	
CC(C)(C)c1ccc(C=NNC(=N)NN=Cc2ccc(C(C)(C)C)cc2)cc1 [Compound 22]	3200	8.3 (≈ 3.13 µg/mL)	
COc1cccc(C=NNC(=N)NN=Cc2cccc(OC)c2)c1 [Compound 25]	> 25000		
Cl.N=C(NN=Cc1c(F)c(F)c(F)c(F)c1F)NN=Cc1c(F)c(F)c(F)c(F)c1F [Compound 39]			Antigiardial activity at 5 h ([1]; 5 h): inactive
COc1ccccc1C=NNC(=N)NN=Cc1ccccc1OC.Cl [Compound 26]			Antigiardial activity MLC (24 h) ([1]; 24 h): >25 µM; IC50 [1, 3]: > 25000 nM
Cl.N=C(NN=Cc1ccccc1Cl)NN=Cc1ccccc1Cl [Compound 12]	12400	25	Activity against gram negative bacteria / E. coli (Escherichia coli): no antibacterial activity

Compound	IC50 [1, 2] [nM]	MIC ([1]; Giardia duodenalis, 24 h) [µM]	also measured
COc1cc(C=NNC(=N)NN=Cc2ccc(O)c(OC)c2)ccc1O [Compound 47]			IC50 [1, 4]: > 25000 nM
COc1ccc(C=NNC(=N)NN=Cc2ccc(OC)c(OC)c2)cc1OC [Compound 44]			IC50 ([1]; 5 h, read-out: Antigiardial activity IC50 (5 h)): 24900 nM; IC50 [1, 4]: ≤ 25000 nM
Cc1ccccc1C=NNC(=N)NN=Cc1ccccc1C [Compound 16]		25 (≈ 7.33 µg/mL)	
N=C(NN=Cc1ccc(OC(F)(F)F)cc1)NN=Cc1ccc(OC(F)(F)F)cc1 [Compound 30, 2,2′‐bis{[4‐(trifluoromethoxy)phenyl]methylene}carbonimidic dihydrazide hydrochloride]	200		
COc1cc(C=NNC(=N)NN=Cc2cc(Br)c(OC)c(OC)c2)cc(Br)c1OC.Cl [Compound 42]			Toxicity (Y/N) (Vero cells; [5]): Y^[e] (compounds are indicated as toxic if >10 % cells are affected); IC50 [1, 4]: 2700 nM; Selectivity ratio [1, 6]: >9.3
Cl.N=C(NN=Cc1ccccc1-c1ccccc1)NN=Cc1ccccc1-c1ccccc1 [Compound 18]	2800	> 25	Toxicity (% growth control) (CaCo-2 cells): 75.4±3.4%; Selectivity ratio [1, 7]: >8.9
Cc1cccc(C=NNC(=N)NN=Cc2cccc(C)c2)c1 [Compound 15]	4900	6.25 (≈ 1.83 µg/mL)	
Cl.N=C(NN=Cc1ccc(Br)cc1)NN=Cc1ccc(Br)cc1 [Compound 6]	1700	8.3	cell death (Vero cells; Vero cells): < 10%; Toxicity (% growth control) (CaCo-2 cells): 97.1±1.6%; cell death (CaCo-2 cells): < 10%; Selectivity ratio [1, 7]: >14.7; Activity against gram negative bacteria / E. coli (Escherichia coli): no antibacterial activity
Cc1ncc([N+](=O)[O-])n1CCO [Metronidazole, metronidazole, reference compound]	3800	8.3 (≈ 1.42 µg/mL)	treatment success / reported efficacy (Giardia): 80–90%; Antigiardial activity at 5 h ([1]; 5 h): inactive; Selectivity ratio [1, 7]: >6.6
Cl.N=C(NN=Cc1ccc(Cl)cc1Cl)NN=Cc1ccc(Cl)cc1Cl [Compound 34]			Toxicity (% growth control) (Vero cells): 55.8±4.3%; Toxicity (Y/N) (Vero cells; [5]): Y (compounds are indicated as toxic if >10 % cells are affected); Selectivity ratio [1, 6]: >10.0
Cl.N=C(NN=Cc1ccccc1Br)NN=Cc1ccccc1Br [Compound 11]	800	25	Toxicity (% growth control) (CaCo-2 cells): 79.1±2.3%; Selectivity ratio [1, 7]: >31.3; Activity against gram negative bacteria / E. coli (Escherichia coli): no antibacterial activity
CCCCc1ccc(C=NNC(=N)NN=Cc2ccc(CCCC)cc2)cc1 [Compound 20]	1900	8.3 (≈ 3.13 µg/mL)	
CSc1ccc(C=NNC(=N)NN=Cc2ccc(SC)cc2)cc1 [Compound 31]	900		
Cl.N=C(NN=Cc1ccccc1F)NN=Cc1ccccc1F [Compound 13]	> 25000	> 25	Toxicity (% growth control) (Vero cells): 93.9±1.9%; Toxicity (Y/N) (Vero cells; [8]): N (compounds are indicated as toxic if >20 % cells are affected)
COc1ccc(C=NNC(=N)NN=Cc2ccc(OC)cc2)cc1.Cl [Compound 24]	5990		Toxicity (Y/N) (Vero cells; [8]): Y^[e] (compounds are indicated as toxic if >20 % cells are affected); Selectivity ratio [1, 7]: >4.2
CC(=O)Nc1cc(Cl)ccc1C=NNC(=N)NN=Cc1ccc(Cl)cc1NC(C)=O.Cl [Compound 40]			Toxicity (% growth control) (CaCo-2 cells): 83.1±4.4%; IC50 [1, 4]: 800 nM; Selectivity ratio [1, 6]: >31.3
N=C(NN=Cc1ccc(SC(F)(F)F)cc1)NN=Cc1ccc(SC(F)(F)F)cc1 [Compound 32, 2,2′‐bis{[4‐(trifluoromethylsulfanyl)phenyl]methylene}carbonimidic dihydrazide hydrochloride]	200		
Cl.N=C(NN=Cc1cc(F)ccc1F)NN=Cc1cc(F)ccc1F [Compound 37]			Antigiardial activity at 5 h ([1]; 5 h): inactive
CCS(=O)(=O)CCn1c([N+](=O)[O-])cnc1C [tinidazole]			treatment success / reported efficacy (Giardia): 80–90%
